Test results from ChEMBL document CHEMBL1201862, “PubChem BioAssay data set” (2004).
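Results reflect a 48-hour exposure of cells in 96-well plates to compound at five concentrations. At the GI50, growth is halved.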 Activity calls are given as the source filed them. Rule as the data show it: active = GI50 up to about 1.1 µM and inactive = higher.

What was measured:
Test in all cases: DTP human tumour cell line panel, 48 h
EKVX = test system: EKVX
SK-MEL-5 = test system: SK-MEL-5
SW-620 = test system: SW-620
SF-295 = test system: SF-295
IGROV-1 = test system: IGROV-1
U-251 = test system: U-251
SF-268 = test system: SF-268
CCRF-CEM = test system: CCRF-CEM
PC-3 = test system: PC-3
A549 = test system: A549
UACC-62 = test system: UACC-62
RPMI-8226 = test system: RPMI-8226
OVCAR-5 = test system: OVCAR-5
SR = test system: SR
SN12C = test system: SN12C
HCT-15 = test system: HCT-15
OVCAR-3 = test system: OVCAR-3
HOP-62 = test system: HOP-62
M14 = test system: M14
UO-31 = test system: UO-31
T47D = test system: T47D
RXF 393 = test system: RXF 393
HCC 2998 = test system: HCC 2998
MDA-MB-231 = test system: MDA-MB-231
SF-539 = test system: SF-539
HL-60 = test system: HL-60
KM12 = test system: KM12
OVCAR-8 = test system: OVCAR-8
NCI/ADR-RES = test system: NCI/ADR-RES
SNB-75 = test system: SNB-75
COLO 205 = test system: COLO 205
MOLT-4 = test system: MOLT-4
SK-MEL-28 = test system: SK-MEL-28
HCT-116 = test system: HCT-116
Malme-3M = test system: Malme-3M
786-0 = test system: 786-0
A498 = test system: A498
HT-29 = test system: HT-29
MDA-MB-435 = test system: MDA-MB-435
NCI-H23 = test system: NCI-H23
MCF7 = test system: MCF7
Hs-578T = test system: Hs-578T
OVCAR-4 = test system: OVCAR-4
SNB-19 = test system: SNB-19
NCI-H460 = test system: NCI-H460
CAKI-1 = test system: CAKI-1
BT-549 = test system: BT-549
ACHN = test system: ACHN
TK-10 = test system: TK-10
SK-OV-3 = test system: SK-OV-3
DU-145 = test system: DU-145
LOX IMVI = test system: LOX IMVI
MDA-N = test system: MDA-N
NCI-H226 = test system: NCI-H226
UACC-257 = test system: UACC-257
HOP-92 = test system: HOP-92
SK-MEL-2 = test system: SK-MEL-2
K562 = test system: K562

Question: With `CC1(c2ccc(F)cc2)CC(c2ccc(F)cc2)=C(C#N)C(=C(C#N)C#N)N1` (stereo not drawn) as the compound, how does the GI50 (EKVX) read?
Answer: 17 µM (inactive)

Question: And the GI50 (SK-MEL-5)?
Answer: 14.1 µM (inactive)

Question: And the GI50 (SW-620)?
Answer: 7.57 µM (inactive)

Question: What about the GI50 (SF-295) of the same compound?
Answer: 16.9 µM (inactive)

Question: And the GI50 (IGROV-1)?
Answer: 17.1 µM (inactive)

Question: And the GI50 (U-251)?
Answer: 16.6 µM (inactive)

Question: What about the GI50 (SF-268) of the same compound?
Answer: 15.8 µM (inactive)

Question: And the GI50 (CCRF-CEM)?
Answer: 2.11 µM (inactive)

Question: What about the GI50 (PC-3) of the same compound?
Answer: 16.3 µM (inactive)

Question: What about the GI50 (A549) of the same compound?
Answer: 19.1 µM (inactive)

Question: And the GI50 (UACC-62)?
Answer: 14.3 µM (inactive)

Question: And the GI50 (RPMI-8226)?
Answer: 5.55 µM (inactive)

Question: And the GI50 (OVCAR-5)?
Answer: 19.8 µM (inactive)

Question: What about the GI50 (SR) of the same compound?
Answer: 14.9 µM (inactive)

Question: And the GI50 (SN12C)?
Answer: 16.7 µM (inactive)

Question: And the GI50 (HCT-15)?
Answer: 14.8 µM

Question: What about the GI50 (OVCAR-3) of the same compound?
Answer: 5.98 µM (inactive)

Question: And the GI50 (HOP-62)?
Answer: 19.7 µM (inactive)

Question: And the GI50 (M14)?
Answer: 18.7 µM (inactive)

Question: What about the GI50 (UO-31) of the same compound?
Answer: 17.1 µM (inactive)

Question: And the GI50 (T47D)?
Answer: 13.3 µM (inactive)

Question: What about the GI50 (RXF 393) of the same compound?
Answer: 12.8 µM (inactive)

Question: And the GI50 (HCC 2998)?
Answer: 14.5 µM (inactive)

Question: And the GI50 (MDA-MB-231)?
Answer: 21.2 µM (inactive)

Question: What about the GI50 (SF-539) of the same compound?
Answer: 25.7 µM (inactive)

Question: And the GI50 (HL-60)?
Answer: 6.31 µM (inactive)

Question: And the GI50 (KM12)?
Answer: 15 µM (inactive)

Question: What about the GI50 (OVCAR-8) of the same compound?
Answer: 20.1 µM (inactive)

Question: What about the GI50 (NCI/ADR-RES) of the same compound?
Answer: 20.5 µM (inactive)

Question: What about the GI50 (SNB-75) of the same compound?
Answer: 19.8 µM (inactive)

Question: And the GI50 (COLO 205)?
Answer: 5.56 µM (inactive)

Question: And the GI50 (MOLT-4)?
Answer: 14.4 µM (inactive)

Question: What about the GI50 (SK-MEL-28) of the same compound?
Answer: 24 µM (inactive)

Question: And the GI50 (HCT-116)?
Answer: 15.6 µM (inactive)

Question: And the GI50 (Malme-3M)?
Answer: 18.7 µM (inactive)

Question: What about the GI50 (786-0) of the same compound?
Answer: 15.3 µM (inactive)

Question: What about the GI50 (A498) of the same compound?
Answer: 19.6 µM (inactive)

Question: What about the GI50 (HT-29) of the same compound?
Answer: 15.4 µM (inactive)

Question: And the GI50 (MDA-MB-435)?
Answer: 16.6 µM (inactive)

Question: What about the GI50 (NCI-H23) of the same compound?
Answer: 17.3 µM (inactive)

Question: And the GI50 (MCF7)?
Answer: 14.5 µM (inactive)

Question: What about the GI50 (Hs-578T) of the same compound?
Answer: 23.3 µM (inactive)

Question: And the GI50 (OVCAR-4)?
Answer: 13.4 µM (inactive)

Question: And the GI50 (SNB-19)?
Answer: 17.4 µM (inactive)

Question: What about the GI50 (NCI-H460) of the same compound?
Answer: 18 µM (inactive)

Question: And the GI50 (CAKI-1)?
Answer: 16 µM (inactive)

Question: What about the GI50 (BT-549) of the same compound?
Answer: 24.9 µM (inactive)

Question: And the GI50 (ACHN)?
Answer: 16.6 µM (inactive)

Question: What about the GI50 (TK-10) of the same compound?
Answer: 18.1 µM (inactive)

Question: What about the GI50 (SK-OV-3) of the same compound?
Answer: 21.8 µM (inactive)

Question: And the GI50 (DU-145)?
Answer: 15.2 µM (inactive)

Question: And the GI50 (LOX IMVI)?
Answer: 18.6 µM (inactive)

Question: What about the GI50 (MDA-N) of the same compound?
Answer: 17.4 µM (inactive)

Question: What about the GI50 (NCI-H226) of the same compound?
Answer: 21.2 µM (inactive)

Question: And the GI50 (UACC-257)?
Answer: 15.3 µM (inactive)

Question: What about the GI50 (HOP-92) of the same compound?
Answer: 12.6 µM (inactive)

Question: And the GI50 (SK-MEL-2)?
Answer: 16 µM (inactive)

Question: What about the GI50 (K562) of the same compound?
Answer: 11 µM (inactive)
